Experimental findings from patent US5254571A, “Chemical compounds” (Smith Kline & French Laboratories Ltd., priority 1988, dated 1993) are described below.

Structures are written as SMILES.

For assay [1], the target named is calmodulin insensitive cyclic GMP phosphodiesterase (Homo sapiens, UniProt O76074). In words: Phosphodiesterase activity: inhibition of calmodulin insensitive cyclic GMP phosphodiesterase. It counts as biochemical. The note with it: procedure described in European Patent Application No. 293063; range given for the listed Examples together; read-out: IC50 (concentration of inhibitor required for 50% inhibition of enzyme activity). As for the experimental part: The activity of the compounds of the present invention as inhibitors of a calmodulin insensitive cyclic GMP phosphodiesterase was measured using the procedure described in European Patent Application No. 293063. […] The compounds of the present invention have the advantage that they are selective in not inhibiting cyclic AMP phosphodiesterase (type III).

Assay [2] deals with ovalbumen-induced bronchoconstrictor response. In words: Anti-allergic activity: ovalbumen-induced bronchoconstriction in sensitised guinea-pigs. Format: in vivo, guinea-pig (male, Duncan Hartley). Particulars: 11 μmol/kg i.v. bolus; 30 minutes following drug administration; ovalbumen 1 mg/kg i.v. challenge; n = 6. As for the experimental part: Male Duncan Hartley guinea-pigs (250-300 g) were sensitised to ovalbumen by i.p. injection of 2 ml of 50 mg.ml^-1 i.p. and 0.2 ml s.c. Three weeks later they were anaesthetised with 60 mg.kg^-1 sodium pentabarbitone. The trachea was cannulated and the animal respired at a rate of 40 breaths per minute and at an initial tracheal inflation pressure of 16 mmHg. Tracheal inflation pressure was measured by a transducer connected to a side arm of the respiration circuit The carotid artery was cannulated for the measurement of blood pressure and the signal was used to trigger an instantaneous rate meter. A jugular vein was cannulated for the administration of drug and allergen. After surgery the animals were allowed to stabilise and the drug was administered i.v. as a bolus. Following this, ovalbumen 1 mg.kg^-1 was injected i.v. as the antigen challenge either 2, 15 or 30 minutes following drug treatment and the peak bronchoconstrictor response recorded. For the control group ovalbumen only was given. One ovalbumen challenge per guinea-pig was used and n = 6 for each time point. The percentage increase in tracheal inflation pressure was calculated.

The subject of assay [3] is U46619-induced bronchoconstriction. As to the kind of experiment: Bronchodilatation in vivo: inhibition of U46619-induced bronchoconstriction in anaesthetised guinea-pigs. Set-up: species or system guinea-pig (male, Dunkin Hartley). Particulars: Cavia porcellus, iv, U46619 infused i.v. 2.5 nmol/min, compound i.v. bolus, peak inhibition, read-out: BD50 (dose required to reduce the U46619-induced bronchoconstriction by 50%). As for the experimental part:
Male guinea-pigs of the Dunkin Hartley strain (500-600 g) were anaesthetised with Sagatal (pentobarbital sodium) (60 mg/kg). Airway resistance was measured using a modification of the classical Konzett-Rossler technique (J. Pharm. Methods, 13, 309-315, 1985). U46619 (9,11-methanoepoxy-pGH2) was infused i.v. at a rate of 2.5 nmol/min, this produced a steady state of bronchoconstriction (approximately 120% increase from basal airway resistance). The compound under test was administered by i.v. bolus injection, and the subsequent peak inhibition of bronchoconstriction recorded.
The dose of compound required to reduce the U46619-induced bronchoconstriction by 50% is given as the BD50.

Assay [4] has as its system hindquarter blood flow / vascular resistance. As to the kind of experiment: Vasodilatation in vivo: hindquarter blood flow in anaesthetised rats. Set-up: species or system rat (male Wistar). The note with it: Rattus norvegicus, iv, bolus i.v., from dose response curves, read-out: EDHQ50 (dose required to produce a 50% increase in hindquarter blood flow). As for the experimental part:
Male Wistar rats (300 g) were anaesthetised with a sodium 5-ethyl-5-(1-methylpropyl)-2-thiobarbiturate/sodium pentobarbitone mixture i.p. (62.5 and 22.5 mg/kg respectively). The trachea was cannulated and the rats breathed spontaneously air enriched with O2 (5 ml/min). Blood pressure was recorded from a carotid artery and a jugular vein was cannulated for the administration of compounds. The temperature of the animal was maintained at 37° C. by the use of an electric blanket. […] The perfusion circuit was primed with 5% bovine serum albumin dissolved in 0.9% sodium chloride solution, pH adjusted to 7.4. Initially the pump rate was set between 10 and 15 ml/min to match the hind quarter perfusion pressure to that of the systemic circulation. Once set, the pressure remained unaltered for the rest of the experiment. A change in the speed of the pump (equivalent to hindquarter blood flow) was used to assess the changes in hindquarter vascular resistance.
All compounds were administered as a bolus i.v. and from the dose response curves the dose required to produce a 50% increase in hindquarter blood flow (EDHQ50) was determined in μmoles/kg.

In the case of `CCCOc1ccccc1-c1[nH]c(=O)c(C#N)cc1C` [Example 12, 3-Cyano-5-methyl-6-(2-propoxyphenyl)-2(1H)-pyridinone], the IC50 in assay [1] was 1.7 to 30 µM.

Consider `CCOc1ccccc1-c1ccc(C#N)c(=O)[nH]1` [Example 9, 3-Cyano-6-(2-ethoxyphenyl)-2(1H)-pyridinone], for which, in assay [1], the IC50 lay within 1.7 to 30 µM.

Consider `CCCOc1ccccc1-c1ccc(C(N)=O)c(=O)[nH]1` [Example 2, 6-(2-Propoxyphenyl)-1,2-dihydro-2-oxopyridine-3-carboxamide], for which the “inhibition of the control bronchoconstrictor response” value in assay [2] is recorded as 44%. Also, the ED50 in assay [3] is 1.1 µmol/kg. Also, in assay [1], the IC50 fell in the range of 1.7 to 30 µM. For the same molecule, in assay [4], the ED (50% increase) is 14 µmol/kg.

As for `CCCOc1ccccc1-c1ccc([N+](=O)[O-])c(=O)[nH]1` [Example 7, 3-Nitro-6-(2-propoxyphenyl)-2(1H)-pyridinone], the ED50 in assay [3] stood at 7.7 µmol/kg. In addition, in assay [1], the IC50 was 1.7 to 30 µM.

Consider `CCCOc1ccccc1-c1ccc(C(=O)OC)c(=O)[nH]1` [Example 4, Methyl 6-(2-propoxyphenyl)-1,2-dihydro-2-oxopyridine-3-carboxylate], for which the IC50 in assay [1] fell in the range of 1.7 to 30 µM.

Regarding `CCCOc1ccccc1-c1ccc(C#N)c(=O)[nH]1` [Example 1, 3-Cyano-6-(2-propoxyphenyl)-2(1H)-pyridinone], in assay [3], the ED50 worked out at 10 µmol/kg. For the same molecule, the IC50 in assay [1] is 1.7 to 30 µM. The ED (50% increase) in assay [4] was 11.5 µmol/kg.

As for `CCCOc1ccccc1-c1ccc(C#N)c(=S)[nH]1` [Example 14, 3-Cyano-6-(2-propoxyphenyl)-2(1H)-pyridinethione], the IC50 in assay [1] lay in the range of 1.7 to 30 µM.

Turning to `CCCOc1ccccc1-c1cccc(=O)[nH]1` [Example 6, 6-(2-Propoxyphenyl)-2(1H)-pyridinone], the IC50 in assay [1] fell in the range of 1.7 to 30 µM.

With `CCCOc1ccccc1-c1cc(C)c(C#N)c(=O)[nH]1` [Example 11, 3-Cyano-4-methyl-6-(2-propoxyphenyl)-2(1H)-pyridinone], the ED50 in assay [3] was determined as 2.3 µmol/kg. Further, the IC50 in assay [1] was 1.7 to 30 µM.

Take `CCCOc1ccccc1-c1ccc(C(=O)O)c(=O)[nH]1` [Example 3, 6-(2-Propoxyphenyl)-1,2-dihydro-2-oxopyridine-3-carboxylic acid]: the ED50 in assay [3] was determined as 10.6 µmol/kg.
